This passage reports GI50 and TGI results from PubChem BioAssay (NCI).

Among the test systems are M14 melanoma; OVCAR-8 ovarian; HCT-116 colon; U251 CNS; SK-MEL-2 melanoma; RXF 393 renal; SR leukemia; HOP-92 NSCLC; A549 NSCLC; OVCAR-4 ovarian.
Experiment in all cases: inhibition of tumour cell growth, NCI panel, 48 h

Structures are written as SMILES. Several values for one entry are separate records, joined by “and”; a condition that tells them apart may be missing. Identical values can stand only once.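 Interpolation was linear, between the two tested concentrations surrounding the appropriate level; five concentrations were tested over 48 hours in 96-well plates. The concentration for 50% growth inhibition is given as GI50. TGI denotes the concentration required for complete inhibition of growth.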 Bounds are passed on as bounds.

Take `O=C(O)c1cc2ccccc2c2c3c(ccc12)OCO3`: the GI50 with M14 melanoma is 179 µM; with OVCAR-8 ovarian, 186 µM; in the experiment with HCT-116 colon, 262 µM; in the experiment on U251 CNS, 134 µM; in the experiment on SK-MEL-2 melanoma it was 166 µM; with RXF 393 renal it was 146 µM. Further, the GI50 is 136 µM with SR leukemia, 18.7 µM in the experiment on HOP-92 NSCLC, 197 µM with A549 NSCLC and 170 µM in the experiment with OVCAR-4 ovarian. Also, the TGI with M14 melanoma was 493 µM; with OVCAR-8 ovarian, 717 µM; in the experiment with HCT-116 colon, greater than 1000 µM; in the experiment on U251 CNS it was 478 µM; with SK-MEL-2 melanoma, 333 µM; in the experiment on RXF 393 renal, 342 µM. Also, the TGI in the experiment on SR leukemia amounted to 507 µM; with HOP-92 NSCLC it was 96.5 µM; in the experiment on A549 NSCLC it was 621 µM; in the experiment on OVCAR-4 ovarian, 808 µM.

For `C1OC1CN1CCN(CC2CO2)CC1` (stereo not drawn), the TGI in the experiment with M14 melanoma, with OVCAR-8 ovarian, in the experiment on HCT-116 colon, in the experiment with U251 CNS, in the experiment on SK-MEL-2 melanoma and in the experiment with RXF 393 renal was greater than 100 µM in each case. Also, the TGI was 23.3 µM in the experiment on SR leukemia, greater than 100 µM in the experiment on HOP-92 NSCLC, greater than 100 µM in the experiment on A549 NSCLC and greater than 100 µM in the experiment on OVCAR-4 ovarian.

With `COCCOCCOCc1n(Cc2ccc3ccccc3c2)c2ccccc2[n+]1Cc1ccc2ccccc2c1`, the GI50 in the experiment on M14 melanoma is 0.491 µM; with OVCAR-8 ovarian, 0.421 µM; in the experiment with HCT-116 colon it was 0.385 µM; in the experiment with U251 CNS it was 0.352 µM; with SK-MEL-2 melanoma, 0.313 µM; in the experiment with RXF 393 renal it was 0.318 µM. Moreover, the GI50 in the experiment with SR leukemia is 0.36 µM; in the experiment with HOP-92 NSCLC, 0.149 µM; in the experiment on A549 NSCLC, 1.33 µM; in the experiment on OVCAR-4 ovarian, 0.231 µM. The TGI was 1.99 µM in the experiment with M14 melanoma; 1.74 µM in the experiment on OVCAR-8 ovarian; 1.65 µM with HCT-116 colon; 1.48 µM in the experiment with U251 CNS; 0.941 µM with SK-MEL-2 melanoma; 1.58 µM in the experiment with RXF 393 renal. Further, the TGI turned out to be 1.6 µM with SR leukemia, 0.829 µM with HOP-92 NSCLC, 3.84 µM in the experiment on A549 NSCLC and 1.19 µM in the experiment with OVCAR-4 ovarian.

Regarding `CC(C)(C)c1cc(C(=O)Nc2ccc(C(=O)NCCN)cc2)cc(C(C)(C)C)c1`, the GI50 in the experiment with M14 melanoma was 1.71 µM; with OVCAR-8 ovarian, 3.39 µM; in the experiment on HCT-116 colon, 3.36 µM; with U251 CNS it was 1.91 µM; in the experiment on SK-MEL-2 melanoma, 2.15 µM; in the experiment with RXF 393 renal, 1.68 µM. For the same compound, the GI50 in the experiment with SR leukemia is 1.47 µM; in the experiment with HOP-92 NSCLC it was 2.82 µM; in the experiment on A549 NSCLC it was 3.15 µM; in the experiment with OVCAR-4 ovarian it was 2.71 µM. Besides, the TGI in the experiment with M14 melanoma amounted to 3.42 µM; with OVCAR-8 ovarian, 10.9 µM; in the experiment on HCT-116 colon it was 12.7 µM; in the experiment with U251 CNS it was 3.88 µM; in the experiment with SK-MEL-2 melanoma, 4.85 µM; in the experiment on RXF 393 renal it was 3.16 µM. In addition, the TGI was determined as 4.82 µM in the experiment with SR leukemia, 12.6 µM with HOP-92 NSCLC, 9.41 µM in the experiment on A549 NSCLC and 11 µM in the experiment on OVCAR-4 ovarian.

Regarding `O=C(Nc1cccc(-n2cc(-c3ccncc3)c(-c3ccc(O)c(Cl)c3)n2)c1)c1ccc2c(c1)OCCO2`, the GI50 in the experiment with M14 melanoma was 5.83 µM; in the experiment with OVCAR-8 ovarian, 3.67 µM; with HCT-116 colon, 5.44 µM; in the experiment with U251 CNS, 4.02 µM; in the experiment on SK-MEL-2 melanoma it was greater than 100 µM; in the experiment with RXF 393 renal, 3.02 µM. For the same compound, the GI50 was 2.46 µM with SR leukemia, 2.26 µM in the experiment on HOP-92 NSCLC, 5.85 µM in the experiment on A549 NSCLC and greater than 100 µM in the experiment on OVCAR-4 ovarian. In addition, the TGI in the experiment with M14 melanoma, in the experiment on OVCAR-8 ovarian, in the experiment with HCT-116 colon, in the experiment with U251 CNS, with SK-MEL-2 melanoma and in the experiment on RXF 393 renal was greater than 100 µM in each case. For the same compound, the TGI with SR leukemia, with HOP-92 NSCLC, in the experiment on A549 NSCLC and in the experiment on OVCAR-4 ovarian was greater than 100 µM in each case.

Turning to `O=C(O)[C@@H]1OCCOCCO[C@@H](C(=O)O)[C@H](C(=O)O)OCCOCCO[C@H]1C(=O)O`, the TGI is greater than 100 µM with M14 melanoma; greater than 100 µM with OVCAR-8 ovarian; greater than 100 µM in the experiment with HCT-116 colon; greater than 86.9 µM in the experiment with U251 CNS; greater than 100 µM in the experiment with SK-MEL-2 melanoma; greater than 24.9 µM in the experiment on RXF 393 renal. The TGI in the experiment on SR leukemia was 40 µM; in the experiment with HOP-92 NSCLC it was greater than 100 µM; with A549 NSCLC, greater than 100 µM; in the experiment on OVCAR-4 ovarian it was greater than 100 µM.

As to `CCOC(=O)Nc1nc2ccccc2[nH]1`, the GI50 is 3.48 µM and 3.43 µM with M14 melanoma; 7.6 µM and 7.04 µM with OVCAR-8 ovarian; 5.34 µM and 4.52 µM with HCT-116 colon; 5.2 µM and 4.48 µM with U251 CNS; 3.44 µM and 4.49 µM in the experiment with SK-MEL-2 melanoma; 3.89 µM in the experiment on RXF 393 renal. Moreover, the GI50 in the experiment with SR leukemia was 2.64 µM and 1.1 µM; with HOP-92 NSCLC, greater than 100 µM; with A549 NSCLC it was 7.08 µM and 9.89 µM; in the experiment with OVCAR-4 ovarian, 28.8 µM and 60.6 µM. Also, the TGI in the experiment on M14 melanoma is greater than 100 µM; with OVCAR-8 ovarian, greater than 100 µM; in the experiment on HCT-116 colon, greater than 100 µM; in the experiment on U251 CNS, greater than 100 µM; in the experiment with SK-MEL-2 melanoma it was greater than 100 µM; in the experiment on RXF 393 renal, 43.6 µM. In addition, the TGI in the experiment on SR leukemia, in the experiment with HOP-92 NSCLC, in the experiment on A549 NSCLC and in the experiment on OVCAR-4 ovarian was greater than 100 µM throughout.

Regarding `CNCC/C=C1\c2cc3c(cc2-c2c1c1cc(OC)c(OC)cc1c(=O)n2C)OCO3`, the GI50 was 0.621 µM in the experiment on M14 melanoma; 0.248 µM in the experiment on OVCAR-8 ovarian; 0.0679 µM with HCT-116 colon; 0.309 µM in the experiment on U251 CNS; 9.68 µM with SK-MEL-2 melanoma; 1.51 µM with RXF 393 renal. Further, the GI50 is less than 0.01 µM with SR leukemia, 0.301 µM with HOP-92 NSCLC, 1.85 µM with A549 NSCLC and 6.72 µM with OVCAR-4 ovarian. The TGI is 17 µM in the experiment on M14 melanoma; 6.55 µM in the experiment with OVCAR-8 ovarian; 19.1 µM in the experiment with U251 CNS; greater than 100 µM in the experiment with SK-MEL-2 melanoma; 14.9 µM in the experiment with RXF 393 renal; 2.74 µM in the experiment on HOP-92 NSCLC. The results for the TGI in the experiment with A549 NSCLC and with OVCAR-4 ovarian were 18.8 µM and 44.8 µM, respectively.

Take `N#Cc1ccc(/C=C(/C(=O)c2ccccc2)c2ccccc2)cc1`: the TGI was determined as 27.8 µM in the experiment with M14 melanoma; 22.1 µM in the experiment with OVCAR-8 ovarian; 11.3 µM with HCT-116 colon; 25 µM in the experiment with U251 CNS; 33.2 µM in the experiment on SK-MEL-2 melanoma; 39.9 µM with RXF 393 renal. Further, the TGI in the experiment on SR leukemia is 8.4 µM; with HOP-92 NSCLC, 39.7 µM; in the experiment on A549 NSCLC, 44.2 µM; with OVCAR-4 ovarian, 26.9 µM.
